This is an account of results in patent US9029396B2, “Substituted indole derivatives” (Novartis AG, priority 2011, dated 2015).

In one data set the target is T1, PKC-theta (Homo sapiens, UniProt Q04759).
T1 construct: Both enzymes were full length human recombinant protein expressed in insect cells; purchased Invitrogen AG, Basel, Switzerland; host or cells: insect cells
Put plainly: Protein kinase C theta assay (Caliper mobility shift). Type of data set: biochemical. The conditions noted are these: full length human recombinant enzyme, 70 μM ATP; read-out: PKCθ (IC50 in nM). On the procedure: (§1) The compounds of the invention were tested for their activity on different PKC isotypes according to the following method. All assays were performed in 384 well microtiter plates. Each assay plate contained 8-point serial dilutions for 40 test compounds, as well as two 16-point serial dilutions of staurosporine as reference compound, plus 16 high- and 16 low controls. Liquid handling and incubation steps were done on a automated workstation equipped with a Innovadyne Nanodrop Express.
(§2) The assay plates were prepared by addition of 50 nL per well of compound solution in 90% DMSO. The kinase reactions were started by stepwise addition of 4.5 μl per well of a 2× peptide/ATP-solution and 4.5 μl per well of a 2× enzyme solution. The final concentration of reagents during kinase reaction were: 50 mM HEPES, pH 7.5, 1 mM DTT, 0.02% Tween20, 0.02% BSA, 0.6% DMSO, 10 mM beta-glycerophosphate, and 10 μM sodium orthovanadate. The peptide substrate used in the PKC-alpha and PKC-theta assays was Dy495-X5-ME-Mpr-RFARKGSLRQKNV-COOH. […]
(§3) Plates with terminated kinase reactions were transferred to the Caliper LC3000 workstations for reading. Phosphorylated and unphosphorylated peptides were separated using the Caliper microfluidic mobility shift technology and Kinase activities were calculated from the amounts of formed phospho-peptide.

Data set [1] is described as follows: Chemical stability of amorphous and crystalline solid. The class given is physicochemical. Conditions: 1 week.
Data set [2] in a line: Dog pharmacokinetics after oral administration of compound of example No. 1. The class given is in vivo, Beagle dogs. The method, then: A single dose of the compound of example 1 (3.0 mg/kg) was administered p.o. to 3 male Beagle dogs. Compound 1 was dosed as an aqueous suspension of the crystalline monohydrate form in Methylcellulose (0.5%): Tween 80 (1%) (90:10). Blood was taken in regular intervals by venipuncture, and the samples were analyzed for a period of up to 24 hours. The compounds of the examples 1, 2, and 3 were quantitatively assessed over time, and the results are tabulated below:
Key pharmacokinetic parameters (mean values±standard deviations (n=3) for 1, 2 and 3 after oral dosing of example No. 1.

A further data set concerns the target T2, PKC-alpha (Homo sapiens, UniProt P17252).
T2 construct: Both enzymes were full length human recombinant protein expressed in insect cells; purchased Invitrogen AG, Basel, Switzerland; host or cells: insect cells
In words: Protein kinase C alpha assay (Caliper mobility shift). Conditions: full length human recombinant enzyme, 17 μM ATP; read-out: PKCα (IC50 in nM). The class given is biochemical. On the procedure:
as §1, §2, §3

Data set [3] in a line: Stability in gastric and intestinal simulated fluids at 37° C. The class given is physicochemical. The method, then:
Stability Assessments Stability of Cpd. Example No. 1 in Gastric and Intestinal Simulated Fluids at 37° C.:
Stability of compound Example No. 3
(Free form/acetate salt form) in gastric and intestinal simulated fluids at 37° C.: […]

[4] abbreviates: dog, blood, po, male Beagle dogs, example 1 3.0 mg/kg p.o.

Structures are written as SMILES.

T1 sequence (Q04759 whole entry): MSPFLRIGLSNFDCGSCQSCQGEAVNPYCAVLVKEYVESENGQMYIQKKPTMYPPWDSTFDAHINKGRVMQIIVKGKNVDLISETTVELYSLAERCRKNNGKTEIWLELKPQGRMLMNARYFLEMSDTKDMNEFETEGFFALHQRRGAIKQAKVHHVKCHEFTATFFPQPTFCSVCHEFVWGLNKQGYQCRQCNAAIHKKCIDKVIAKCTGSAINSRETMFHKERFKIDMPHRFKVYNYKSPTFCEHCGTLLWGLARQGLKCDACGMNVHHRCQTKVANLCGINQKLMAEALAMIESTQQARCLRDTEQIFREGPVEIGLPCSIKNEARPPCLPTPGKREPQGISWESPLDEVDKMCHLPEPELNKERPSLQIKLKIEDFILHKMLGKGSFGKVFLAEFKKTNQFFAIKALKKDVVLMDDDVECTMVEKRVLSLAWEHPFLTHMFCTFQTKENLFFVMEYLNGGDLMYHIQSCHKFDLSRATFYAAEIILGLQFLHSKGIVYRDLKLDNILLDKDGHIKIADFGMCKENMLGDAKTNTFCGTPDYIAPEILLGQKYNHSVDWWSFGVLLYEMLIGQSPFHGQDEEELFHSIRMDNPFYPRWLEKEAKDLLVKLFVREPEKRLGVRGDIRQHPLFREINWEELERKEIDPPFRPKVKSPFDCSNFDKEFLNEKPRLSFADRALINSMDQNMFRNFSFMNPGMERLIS

`Cc1cccc2c(C3=C(c4nc(N5CCNC6(CC6)C5)cc5ccccc45)C(=O)N(COP(=O)(O)O)C3=O)c[nH]c12` [Example 1, Phosphoric acid mono-[3-[3-(4,7-diaza-spiro[2.5]oct-7-yl)-isoquinolin-1-yl]-4-(7-methyl-1H-indol-3-yl)-2,5-dioxo-2,5-dihydro-pyrrol-1-ylmethyl]ester]: the IC50 on PKC-theta was found to be 462 nM; on PKC-alpha, 1680 nM. Also, the Purity after exposure stood at 95.8% in data set [1] (Amorphous, initial purity 98.5 %, 50 ° C.); 89.7% in data set [1] (Amorphous, initial purity 98.5 %, 80 ° C.); 100% in data set [1] (Crystalline mono-hydrate, initial purity 100 %, 50 ° C.); 100% in data set [1] (Crystalline mono-hydrate, initial purity 100 %, 80 ° C.). For the same compound, the “Conversion of prodrug into parent compound in blood” value in data set [2] (after administration, example 3 is main component in blood after around an hour) is “is converted into compound of example 3”. For the same compound, in data set [2] (setting [4]), the concentration at 0.25 h is 3.1 nM. Also, in data set [2] (setting [4]), the concentration at 0.5 h came out at 1.1 nM. The “Amount in Area % of compound example No. 1” value in data set [3] (FaSSIF pH 6.5, 37° C., 0 hours) is 95.1 Area %; in data set [3] (FaSSIF pH 6.5, 37° C., 1 hours), 93.8 Area %; in data set [3] (FaSSIF pH 6.5, 37° C., 2.5 hours), 92.3 Area %; in data set [3] (FaSSIF pH 6.5, 37° C., 4.2 hours), 90.5 Area %; in data set [3] (FaSSIF pH 6.5, 37° C., 7 hours), 87.7 Area %; in data set [3] (FeSSIF pH 5.8, 37° C., 0 hours), 95.0 Area %. The “Amount in Area % of compound example No. 1” value is 94.9 Area % in data set [3] (FeSSIF pH 5.8, 37° C., 1 hours); 94.8 Area % in data set [3] (FeSSIF pH 5.8, 37° C., 2.5 hours); 94.8 Area % in data set [3] (FeSSIF pH 5.8, 37° C., 4.2 hours); 94.8 Area % in data set [3] (FeSSIF pH 5.8, 37° C., 7 hours); 95.9 Area % in data set [3] (SGF pH 2, 37° C., 0 hours); 95.5 Area % in data set [3] (SGF pH 2, 37° C., 1 hours). Also, the “Amount in Area % of compound example No. 1” value in data set [3] (SGF pH 2, 37° C., 2.5 hours) is recorded as 95.3 Area %; in data set [3] (SGF pH 2, 37° C., 4.2 hours) it was 95.6 Area %; in data set [3] (SGF pH 2, 37° C., 7 hours) it was 95.6 Area %.

For `Cc1cccc2c(C3=C(c4nc(N5CCNC6(CC6)C5)cc5ccccc45)C(=O)N(CO)C3=O)c[nH]c12` [Example 2, 3-[3-(4,7-Diaza-spiro[2.5]oct-7-yl)-isoquinolin-1-yl]-1-hydroxymethyl-4-(7-methyl-1H-indol-3-yl)-pyrrole-2,5-dione], the concentration at 0.083 h in data set [2] (dog, blood, po, male Beagle dogs, example 1 3.0 mg/kg p.o. (crystalline monohydrate suspension), 0.083 h) turned out to be 10 nM. In data set [2] (setting [4]), the concentration at 0.25 h came to 39.6 nM and the concentration at 0.5 h amounted to 31.3 nM. The same compound registered a concentration at 0.75 h in data set [2] (dog, blood, po, male Beagle dogs, example 1 3.0 mg/kg p.o., 0.75 h) of 19.1 nM. The compound further gave a concentration at 1 h in data set [2] (dog, blood, po, male Beagle dogs, example 1 3.0 mg/kg p.o., 1 h) of 6.3 nM. Also, the concentration at 2 h in data set [2] (dog, blood, po, male Beagle dogs, example 1 3.0 mg/kg p.o., 2 h) came to 7.7 nM. Moreover, the concentration at 3 h in data set [2] (dog, blood, po, male Beagle dogs, example 1 3.0 mg/kg p.o., 3 h) turned out to be 1 nM. For the same compound, the AUC d.n. result in data set [2] (dose normalized, mean ± SD (n=3), after oral dosing of example No. 1 to dogs) was “low”. Besides, the Tmax in data set [2] (male, Beagle, dog, blood, 3 mg/kg, mean ± SD (n=3), after oral dosing of example No. 1 to dogs) is 24 ± 6 min.
